Experimental findings from patent US8198311B2, “Modulators of glucocorticoid receptor, AP-1, and/or NF-κB activity and use thereof” (Bristol-Myers Squibb Company, priority 2006, dated 2012) are described below.

Assay [1] relates to AP-1 induced transcriptional activity. The assay can be described thus: Cellular Transrepressional Assay (AP-1 luciferase reporter in A549 cells, PMA-activated). In kind it is cell-based. The settings on record: Homo sapiens, A549, 7 h, pAP-1-Luc, 10 ng/ml PMA, read-out: AP-1 (EC50, nM) (Cellular Transrepression Assay). Here is the method: To measure the ability of test molecules to inhibit AP-1 induced transcriptional activity an A549 cell was utilized which was stably transfected with a plasmid containing 7×AP-1 DNA binding sites (pAP-1-Luc plasmid, Stratagene Co. La Jolla, Calif.) followed by the gene for luciferase. Cells were activated with 10 ng/ml of phorbol myristic acid (PMA) plus or minus test molecules for 7 hours. After 7 hours a luciferase reagent was added to measure luciferase enzymatic activity in the cell. After a 10 minute incubation of luciferase reagent with cells, luminescence was measured in a TopCount luminescence counter. Repression of AP-1 activity was calculated as the percentage decrease in the signal induced by PMA alone. Test molecules were analyzed in the concentration range from 0.1 nM to 40 μM. EC50s were determined by using standard curve fitting methods such as Excel fit (Microsoft Co.).

For assay [2], the target named is T1, human glucocorticoid receptor (Homo sapiens, UniProt P04150).
T1 construct: purified human recombinant full-length glucocorticoid receptor (2 nM); purchased Invitrogen Part # 2893
T1 sequence (P04150 1-777): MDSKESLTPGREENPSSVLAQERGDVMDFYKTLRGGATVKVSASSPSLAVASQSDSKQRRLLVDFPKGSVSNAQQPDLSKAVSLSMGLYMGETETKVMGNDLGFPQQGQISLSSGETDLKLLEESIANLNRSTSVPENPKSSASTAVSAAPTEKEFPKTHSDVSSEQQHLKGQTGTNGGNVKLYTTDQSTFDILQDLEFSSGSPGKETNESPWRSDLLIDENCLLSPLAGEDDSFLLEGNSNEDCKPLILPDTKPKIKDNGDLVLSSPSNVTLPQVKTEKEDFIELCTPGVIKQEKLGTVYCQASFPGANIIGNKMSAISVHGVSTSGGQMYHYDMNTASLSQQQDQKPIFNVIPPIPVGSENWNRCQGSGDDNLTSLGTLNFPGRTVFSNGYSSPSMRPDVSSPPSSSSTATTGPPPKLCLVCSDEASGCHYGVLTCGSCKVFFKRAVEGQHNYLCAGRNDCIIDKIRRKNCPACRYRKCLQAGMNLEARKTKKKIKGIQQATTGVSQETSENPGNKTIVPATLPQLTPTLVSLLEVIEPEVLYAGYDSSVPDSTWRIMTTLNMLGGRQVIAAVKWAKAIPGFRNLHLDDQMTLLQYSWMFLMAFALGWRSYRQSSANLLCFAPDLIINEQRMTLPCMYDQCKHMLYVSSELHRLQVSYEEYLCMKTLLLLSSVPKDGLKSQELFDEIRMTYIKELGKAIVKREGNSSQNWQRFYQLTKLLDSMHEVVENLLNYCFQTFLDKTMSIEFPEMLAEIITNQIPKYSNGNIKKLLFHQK
The assay can be described thus: Glucocorticoid Receptor Binding Assay (I), fluorescence polarization competitor kit (Fluormone GS Red). The settings on record: purified human recombinant full-length GR. Here is the method:
In order to assess the affinity of test compounds for the human glucocorticoid receptor, a commercially available kit was used (Glucocorticoid Receptor Competitor Assay Kit, Invitrogen Part # 2893). Briefly, purified human recombinant full-length glucocorticoid receptor (2 nM) was mixed with fluorescently labeled glucocorticoid (1 nM Fluormone GS Red) in the presence or absence of test compound. After two hour incubation at room temperature in the dark, the fluorescence polarization (FP) of the samples was measured. […] Test compounds were analyzed in the concentration range from 8.5E-05 μM to 5 μM.
In general terms: Fluorescence polarisation rises when a labelled molecule tumbles more slowly, as on binding a larger partner.

Where only a bound is given, the exact number is not on record here.

A word on the EC50: it is the concentration that produces a half-maximal response. Broadly, the Ki is the equilibrium dissociation constant of an inhibitor or competing ligand from its target. Consider `CC(C)(CNC(=O)CC(F)(F)F)[C@@H](c1ccccc1)c1ccc2c(cnn2-c2ccc(F)cc2)c1` [(S)-17, (S)-3,3,3-trifluoro-N-(3-(1-(4-fluorophenyl)-1H-indazol-5-yl)-2,2-dimethyl-3-phenylpropyl)-propanamide], for which the EC50 in assay [1] is 13 nM. In assay [2], the Ki was 0.63 nM.

For `CC(C)(CNS(=O)(=O)CC(F)(F)F)[C@@H](c1ccccc1)c1ccc2c(cnn2-c2ccc(F)cc2)c1` [Example 18, (S)-2,2,2-trifluoro-N-(3-(1-(4-fluorophenyl)-1H-indazol-5-yl)-2,2-dimethyl-3-phenylpropyl)ethanesulfonamide], the EC50 in assay [1] was 25 nM. Besides, in assay [2], the Ki came out at 1.1 nM.

Take `CC(C)CC(c1ccc2c(cnn2-c2ccc(F)cc2)c1)C(C)(C)CNC(=O)NCC(C)(C)C` (stereo not drawn) [Example 35, 1-(3-(1-(4-fluorophenyl)-1H-indazol-5-yl)-2,2,5-trimethylhexyl)-3-neopentylurea]: the EC50 in assay [1] is 159 nM. Moreover, the inhibition constant (Ki) in assay [2] is 2.3 nM.

Take `CC(C)CC(c1ccc2c(cnn2-c2ccc(F)cc2)c1)C(C)(C)CNC(=O)NC1CCOCC1` (stereo not drawn) [Example 37, 1-(3-(1-(4-fluorophenyl)-1H-indazol-5-yl)-2,2,5-trimethylhexyl)-3-(tetrahydro-2H-pyran-4-yl)urea]: the EC50 in assay [1] was over 10000 nM. For the same molecule, the Ki in assay [2] was determined as 5.8 nM.

With `CC(C)CC(c1ccc2c(cnn2-c2ccc(F)cc2)c1)C(C)(C)CNC(=O)NC1(C)CCS(=O)(=O)C1` (stereo not drawn) [Example 38], in assay [1], the EC50 was over 10000 nM. In addition, the Ki in assay [2] stood at 6.3 nM.

Regarding `CC(C)CC(c1ccc2c(cnn2-c2ccc(F)cc2)c1)C(C)(C)CNC(=O)N1CCC[C@@H]1CO` (stereo partly drawn) [Example 39, (2R)-N-(3-(1-(4-fluorophenyl)-1H-indazol-5-yl)-2,2,5-trimethylhexyl)-2-(hydroxymethyl)pyrrolidine-1-carboxamide], in assay [1], the half-maximal effective concentration (EC50) was over 10000 nM. Further, the Ki in assay [2] worked out at 3.2 nM.

On to `CC(C)CC(c1ccc2c(cnn2-c2ccc(F)cc2)c1)C(C)(C)CNC(=O)N1CC(N)C1` (stereo not drawn) [Example 40, 3-amino-N-(3-(1-(4-fluorophenyl)-1H-indazol-5-yl)-2,2,5-trimethylhexyl)azetidine-1-carboxamide], for which the EC50 in assay [1] is over 10000 nM. The Ki in assay [2] came to 11 nM.

Consider `CC(C)CC(c1ccc2c(cnn2-c2ccc(F)cc2)c1)C(C)(C)CNC(=O)NC(C)(C)CN` (stereo not drawn) [Example 41, 1-(1-amino-2-methylpropan-2-yl)-3-(3-(1-(4-fluorophenyl)-1H-indazol-5-yl)-2,2,5-trimethylhexyl)urea], for which the EC50 in assay [1] is over 10000 nM. For the same molecule, the Ki in assay [2] was determined as 8.1 nM.

As for `CC(C)CC(c1ccc2c(cnn2-c2ccc(F)cc2)c1)C(C)(C)CNC(=O)NC1(CO)CCCC1` (stereo not drawn) [Example 42, 1-(3-(1-(4-fluorophenyl)-1H-indazol-5-yl)-2,2,5-trimethylhexyl)-3-(1-(hydroxymethyl)cyclopentyl)urea], in assay [1], the EC50 turned out to be 682 nM. Also, the Ki in assay [2] was found to be 2.4 nM.

In the case of `CC(C)CC(c1ccc2c(cnn2-c2ccc(F)cc2)c1)C(C)(C)CNC(=O)N[C@H](C)C(C)(C)C` (stereo partly drawn) [Example 44, 1-((R)-3,3-dimethylbutan-2-yl)-3-(3-(1-(4-fluorophenyl)-1H-indazol-5-yl)-2,2,5-trimethylhexyl)urea], in assay [1], the EC50 was found to be 54 nM. Besides, the inhibition constant Ki in assay [2] was 2.7 nM.

In the case of `CC(C)CC(c1ccc2c(cnn2-c2ccc(F)cc2)c1)C(C)(C)CNC(=O)N[C@H](C)CO` (stereo partly drawn) [Example 45, 1-(3-(1-(4-fluorophenyl)-1H-indazol-5-yl)-2,2,5-trimethylhexyl)-3-((R)-1-hydroxypropan-2-yl)urea], the EC50 in assay [1] worked out at 1540 nM. Besides, in assay [2], the Ki came to 2.1 nM.

Consider `CC(C)CC(c1ccc2c(cnn2-c2ccc(F)cc2)c1)C(C)(C)CNC(=O)NC(CO)CO` (stereo not drawn) [Example 46, 1-(1,3-dihydroxypropan-2-yl)-3-(3-(1-(4-fluorophenyl)-1H-indazol-5-yl)-2,2,5-trimethylhexyl)urea], for which, in assay [1], the EC50 worked out at 6050 nM. In assay [2], the inhibition constant (Ki) was 1.5 nM.
